Reference: patent US5883076A, “Systemin” (Washington State University Research Foundation, Inc., priority 1994, dated 1999)
Values belong to the compound of their own block, whether it stands above or below them. Where no end group is shown, it is not given here.

Assays:
[1] = system: proteinase Inhibitor I and II; experiment: Proteinase inhibitor inducing activity supplied through cut stems/petioles of young tomato plants, radial immunodiffusion of leaf juice; type: in vivo, tomato (Lycopersicon esculentum)
Procedure: A search was initiated for systemic signals inducing proteinase Inhibitor I and II genes in tomato leaf extracts. […] The polypeptide was purified using high-performance liquid chromatography (HPLC, see Materials and Methods, below). Inducing activity of the polypeptide was assayed by cutting the petioles of young plants and introducing eluted fractions from column separations into the cut over a period of 30 min. The plants were subsequently transferred to small vials of water, incubated under constant light for 24 hours as described (C. A. Ryan, Plant Physiol. 54, 328, 1974), and the amount of proteinase Inhibitor I and II in the leaf juice was quantified by radial immunodiffusion in agar gels that contained rabbit antiserum to Inhibitor I or Inhibitor II (C. A. Ryan, Anal. Biochem. 19, 434, 1967; R. Trautman, K. Cowan, G. Wagner, Immunochemistry 8, 901, 1971). Over 30,000 young tomato plants were assayed over a 2.5 year period.
The leaves were incubated in solutions containing the synthetic systemin polypeptide and the proteinase inhibitors were assayed as described above in Example 1. Each data point was obtained from assays of the leaves of 36 tomato plants.

[2] = Loss of inducing activity of purified systemin after acid hydrolysis or proteolytic enzymes; type: physicochemical
[3] = in vivo
[4] = in vivo; cited from earlier work
[5] = supplied to cut stems of young tomato plants

number of tomato plants in which the sample could induce maximal accumulation of proteinase inhibitors ([1]; step 6 sample, approximately 1 μg of protein): 40,000 tomato plants
activity after acid hydrolysis [2]: total loss of activity
activity in the presence of trypsin and other proteolytic enzymes [2]: partial loss of activity
Compound: CSCC[C@H](NC(=O)[C@H](CCCCN)NC(=O)[C@@H]1CCCN1C(=O)[C@@H]1CCCN1C(=O)[C@H](CC(=O)O)NC(=O)[C@H](CCCNC(=N)N)NC(=O)[C@H](CCCCN)NC(=O)[C@H](CO)NC(=O)[C@@H]1CCCN1C(=O)[C@@H]1CCCN1C(=O)[C@H](CCCCN)NC(=O)[C@H](CO)NC(=O)[C@H](CCC(N)=O)NC(=O)[C@@H](NC(=O)[C@H](C)N)C(C)C)C(=O)N[C@@H](CCC(N)=O)C(=O)N[C@H](C(=O)N[C@@H](CC(=O)O)C(=O)O)[C@@H](C)O [systemin, NH3 -AVQSKPPSKRDPPKMQTD-COO-]

activity on a molar basis relative to previously reported PIIF oligogalactunonide inducers ([1]; in vivo): about 10^5 times
amount of polypeptide required to produce half maximal accumulation of Inhibitors I and II [1, 5]: About 40 fmol per plant
Compound: NH3 -AVQSKPPSKRDPPKMQTD-COO- [synthetic systemin polypeptide]
bioactivity for inducing synthesis and accumulation of Inhibitor I and II compared with native systemin [1, 5]: as effective as the native systemin polypeptide

Compound: ^14 C-labeled polypeptide: synthetic systemin with [14C] Ala added to residues 2 through 18 (AVQSKPPSKRDPPKMQTD; also: 14C label, positions not clearly stated; UniProt P27058 179-196, looked up)
time for radioactivity to move throughout the leaf [3]: ≤ 30 min
time to identification of radiolabeled systemin in phloem exudate by HPLC [3]: 1 to 2 h

Compound: α-1, 4-oligogalacturonides
mobility from wound sites [4]: not found to be mobile
